Measured values taken from US6737383B1, “Herbicidal oxadiazolidines” (priority 1999, dated 2004).

What was measured:
soybean = experiment: Test B pre/postemergence soybean; assay type: in vivo, Glycine max
Outline: (§1)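 Response is a visual 0-to-10 score relative to untreated plants, where 0 means no effect and 10 means complete control, taken twelve to sixteen days after application. Treatments went onto soil at planting and onto foliage of 1- to 4-leaf plants, using a surfactant-containing non-phytotoxic solvent.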

duck salad = experiment: Test B flood test duck salad; assay type: in vivo, Heteranthera limosa
Outline: (§2)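 Flood test on plants grown to the 2-leaf stage; treated plants kept in greenhouse twelve to sixteen days, then visually rated against controls on a 0 (no effect) to 10 (complete control) scale.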

giant foxtail = experiment: Test B pre/postemergence giant foxtail; assay type: in vivo, Setaria faberii
Outline: as §1

bamyardgrass = experiment: Test B flood test barnyardgrass; assay type: in vivo, Echinochloa crus-galli
Outline: as §2

corn = experiment: Test B pre/postemergence corn; assay type: in vivo, Zea mays
Outline: as §1

rice = experiment: Test B flood test rice; assay type: in vivo, Oryza sativa
Outline: as §2

crabgrass = experiment: Test B pre/postemergence crabgrass; assay type: in vivo, Digitaria sanguinalis
Outline: as §1

morningglory = experiment: Test B pre/postemergence morningglory; assay type: in vivo, Ipomoea hederacea
Outline: as §1

pigweed = experiment: Test B pre/postemergence pigweed; assay type: in vivo, Amaranthus retroflexus
Outline: as §1

cocklebur = experiment: Test B pre/postemergence cocklebur; assay type: in vivo, Xanthium strumarium
Outline: as §1

velvetleaf = experiment: Test B pre/postemergence velvetleaf; assay type: in vivo, Abutilon theophrasti
Outline: as §1

wild oat = experiment: Test B pre/postemergence wild oat; assay type: in vivo, Avena fatua
Outline: as §1

purple nutsedge = experiment: Test B pre/postemergence purple nutsedge; assay type: in vivo, Cyperus rotundus
Outline: as §1

sugar beet = experiment: Test B pre/postemergence sugar beet; assay type: in vivo, Beta vulgaris
Outline: as §1

rape = experiment: Test B pre/postemergence rape; assay type: in vivo, Brassica napus
Outline: as §1

wheat = experiment: Test B pre/postemergence wheat; assay type: in vivo, Triticum aestivum
Outline: as §1

[1] = Postemergence, Rate 125 g/ha, scale 0 to 10, 0 is no effect, 10 is complete control
[2] = Preemergence, Rate 62 g/ha, scale of 0 to 10 where 0 is no effect and 10 is complete control
[3] = Preemergence, Rate 250 g/ha, scale of 0 to 10 where 0 is no effect and 10 is complete control
[4] = Preemergence, Rate 500 g/ha, scale of 0 to 10 where 0 is no effect and 10 is complete control
[5] = Rate 62 g/ha, Postemergence, scale 0 to 10 (0 no effect, 10 complete control)
[6] = Rate 500 g/ha, Postemergence, scale 0 to 10, 0 no effect, 10 complete control
[7] = Rate 62 g/ha, headed Pre-emergence (flood test species), scale 0 to 10 (0 no effect, 10 complete control)
[8] = Rate 125 g/ha, Pre-emergence, flood test species, scale 0 to 10 where 0 is no effect and 10 is complete control
[9] = Rate 250 g/ha, Pre-emergence, flood-test species, scale 0 to 10, 0 is no effect, 10 is complete control
[10] = Rate 500 g/ha, Pre-emergence, flood test species, scale 0 to 10 (0 no effect, 10 complete control)

Question: Which results are given for `Cc1c(-n2c(=O)on(C(=O)N(c3ccc(F)cc3F)C(C)C)c2=O)ccc2ccccc12` [Compound 337]?
Answer: Plant response rating, Soybean (soybean; [1]): 1; Soybean plant response rating (soybean; [2]): 0; Soybean plant response rating (0 to 10 scale) (soybean; Preemergence, Rate 125 g/ha): 0; Soybean plant response rating (soybean; [3]): 0; Soybean plant response rating (soybean; [4]): 0; Soybean plant response rating (soybean; [5]): 1; Plant response rating, Soybean (soybean; [6]): 2; Ducksalad plant response rating (duck salad; [7]): 0; Ducksalad plant response rating (duck salad; [8]): 0; Ducksalad plant response rating (duck salad; [9]): 0; Ducksalad plant response rating (duck salad; [10]): 0; Plant response rating, Giant foxtail (giant foxtail; [1]): 0; Giant foxtail plant response rating (giant foxtail; [2]): 0; Giant foxtail plant response rating (0 to 10 scale) (giant foxtail; Preemergence, Rate 125 g/ha): 0; Giant foxtail plant response rating (giant foxtail; [3]): 2; Giant foxtail plant response rating (giant foxtail; [4]): 9; Giant foxtail plant response rating (giant foxtail; [5]): 0; Plant response rating, Giant foxtail (giant foxtail; [6]): 0; Barnyardgrass plant response rating (bamyardgrass; [7]): 0; Barnyardgrass plant response rating (bamyardgrass; [8]): 0; Barnyardgrass plant response rating (bamyardgrass; [9]): 0; Barnyardgrass plant response rating (bamyardgrass; [10]): 5; Plant response rating, Corn (corn; [1]): 0; Corn plant response rating (corn; [2]): 0; Corn plant response rating (0 to 10 scale) (corn; Preemergence, Rate 125 g/ha): 0; Corn plant response rating (corn; [3]): 0; Corn plant response rating (corn; [4]): 0; Corn plant response rating (corn; [5]): 0; Plant response rating, Corn (corn; [6]): 0; Rice plant response rating (rice; [7]): 0; Rice plant response rating (rice; [8]): 0; Rice plant response rating (rice; [9]): 0; Rice plant response rating (rice; [10]): 0; Plant response rating, Crabgrass (crabgrass; [1]): 0; Crabgrass plant response rating (crabgrass; [2]): 0; Crabgrass plant response rating (0 to 10 scale) (crabgrass; Preemergence, Rate 125 g/ha): 0; Crabgrass plant response rating (crabgrass; [3]): 0; Crabgrass plant response rating (crabgrass; [4]): 3; Crabgrass plant response rating (crabgrass; [5]): 0; Plant response rating, Crabgrass (crabgrass; [6]): 0; Plant response rating, Morningglory (morningglory; [1]): 0; Morningglory plant response rating (morningglory; [2]): 0; Morningglory plant response rating (0 to 10 scale) (morningglory; Preemergence, Rate 125 g/ha): 0; Morningglory plant response rating (morningglory; [3]): 0; Morningglory plant response rating (morningglory; [4]): 0; Morningglory plant response rating (morningglory; [5]): 0; Plant response rating, Morningglory (morningglory; [6]): 0; Plant response rating, Redroot pigweed (pigweed; [1]): 0; Redroot pigweed plant response rating (pigweed; [2]): 0; Redroot pigweed plant response rating (0 to 10 scale) (pigweed; Preemergence, Rate 125 g/ha): 0; Redroot pigweed plant response rating (pigweed; [3]): 0; Redroot pigweed plant response rating (pigweed; [4]): 0; Redroot pigweed plant response rating (pigweed; [5]): 0; Plant response rating, Redroot pigweed (pigweed; [6]): 0; Plant response rating, Cocklebur (cocklebur; [1]): 0; Cocklebur plant response rating (cocklebur; [2]): 0; Cocklebur plant response rating (0 to 10 scale) (cocklebur; Preemergence, Rate 125 g/ha): 0; Cocklebur plant response rating (cocklebur; [3]): 0; Cocklebur plant response rating (cocklebur; [4]): 0; Cocklebur plant response rating (cocklebur; [5]): 0; Plant response rating, Velvetleaf (velvetleaf; [1]): 0; Velvetleaf plant response rating (velvetleaf; [2]): 0; Velvetleaf plant response rating (0 to 10 scale) (velvetleaf; Preemergence, Rate 125 g/ha): 0; Velvetleaf plant response rating (velvetleaf; [3]): 0; Velvetleaf plant response rating (velvetleaf; [4]): 0; Velvetleaf plant response rating (velvetleaf; [5]): 0; Plant response rating, Velvetleaf (velvetleaf; [6]): 0; Plant response rating, Wild oats (wild oat; [1]): 0; Wild oats plant response rating (wild oat; [2]): 0; Wild oats plant response rating (0 to 10 scale) (wild oat; Preemergence, Rate 125 g/ha): 0; Wild oats plant response rating (wild oat; [3]): 0; Wild oats plant response rating (wild oat; [4]): 0; Wild oats plant response rating (wild oat; [5]): 0; Plant response rating, Wild oats (wild oat; [6]): 0; Plant response rating, Nutsedge (purple nutsedge; [1]): 0; Nutsedge plant response rating (purple nutsedge; [2]): 0; Nutsedge plant response rating (0 to 10 scale) (purple nutsedge; Preemergence, Rate 125 g/ha): 0; Nutsedge plant response rating (purple nutsedge; [3]): 0; Nutsedge plant response rating (purple nutsedge; [4]): 0; Nutsedge plant response rating (purple nutsedge; [5]): 0; Plant response rating, Nutsedge (purple nutsedge; [6]): 0; Plant response rating, Sugarbeets (sugar beet; [1]): 0; Sugarbeets plant response rating (sugar beet; [2]): 0; Sugarbeets plant response rating (0 to 10 scale) (sugar beet; Preemergence, Rate 125 g/ha): 0; Sugarbeets plant response rating (sugar beet; [3]): 0; Sugarbeets plant response rating (sugar beet; [4]): 0; Sugarbeets plant response rating (sugar beet; [5]): 0; Plant response rating, Sugarbeets (sugar beet; [6]): 0; Plant response rating, Rape (rape; [1]): 0; Rape plant response rating (rape; [2]): 0; Rape plant response rating (0 to 10 scale) (rape; Preemergence, Rate 125 g/ha): 0; Rape plant response rating (rape; [3]): 0; Rape plant response rating (rape; [4]): 0; Rape plant response rating (rape; [5]): 0; Plant response rating, Rape (rape; [6]): 0; Plant response rating, Wheat (wheat; [1]): 0; Wheat plant response rating (wheat; [2]): 0; Wheat plant response rating (0 to 10 scale) (wheat; Preemergence, Rate 125 g/ha): 0; Wheat plant response rating (wheat; [3]): 0; Wheat plant response rating (wheat; [4]): 0; Wheat plant response rating (wheat; [5]): 0; Plant response rating, Wheat (wheat; [6]): 0
